Data as given in US20100099676A1 (SHIONOGI & CO., LTD., priority 2006, published 2010).

Tests used:
Test in all cases: Enzyme inhibiting activity of MMPs, fluorogenic peptide substrate
Format in all cases: biochemical
MMP-13 = target: T1, MMP-13 (Homo sapiens, UniProt P45452); conditions: APMA-activated proenzyme; substrate MOCAc-Pro-Leu-Gly-Leu-A2Pr(DNP)-Ala-Arg-NH2, fluorescent intensity; read-out: IC50 MMP-13
T1 construct: purchased Calbiochem (EMD/MERCK Biosciences)
How it was run: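 Pro-MMP-13 was activated with 1 mM APMA at 37° C for 2 h in 50 mM Tris-HCl pH 7.6, 0.3 M NaCl, 10 mM CaCl2, 0.005% Brij35. Activity was read by fluorescence using MOCAc-Pro-Leu-Gly-Leu-A2Pr(DNP)-Ala-Arg-NH2 substrate, with enzyme and inhibitor blank corrections. IC50 is the concentration giving 50% inhibition.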

MMP-9 = target: T2, MMP-9 (Homo sapiens, UniProt P14780); conditions: substrate MOCAc-Pro-Leu-Gly-Leu-A2Pr(DNP)-Ala-Arg-NH2, fluorescent intensity
T2 construct: purchased Calbiochem (EMD/MERCK Biosciences)
T2 sequence (P14780 94-707): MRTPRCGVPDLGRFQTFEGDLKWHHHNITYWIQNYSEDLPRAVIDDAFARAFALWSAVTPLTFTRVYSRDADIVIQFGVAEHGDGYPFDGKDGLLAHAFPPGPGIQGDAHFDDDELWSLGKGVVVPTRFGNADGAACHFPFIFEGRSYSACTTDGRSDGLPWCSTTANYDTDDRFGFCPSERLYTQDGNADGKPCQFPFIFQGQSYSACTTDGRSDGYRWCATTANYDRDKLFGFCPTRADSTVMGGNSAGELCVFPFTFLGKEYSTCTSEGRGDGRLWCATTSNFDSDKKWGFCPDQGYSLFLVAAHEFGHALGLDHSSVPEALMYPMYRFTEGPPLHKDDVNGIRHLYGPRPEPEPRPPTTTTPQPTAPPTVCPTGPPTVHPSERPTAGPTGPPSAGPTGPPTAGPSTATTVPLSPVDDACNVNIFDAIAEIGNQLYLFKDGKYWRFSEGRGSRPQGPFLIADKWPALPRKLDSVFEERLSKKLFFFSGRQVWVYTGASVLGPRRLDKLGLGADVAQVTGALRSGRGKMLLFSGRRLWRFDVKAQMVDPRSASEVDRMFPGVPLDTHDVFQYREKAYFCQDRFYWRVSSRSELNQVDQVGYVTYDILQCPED
How it was run: (§1)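 Recombinant human enzymes with the fluorogenic substrate MOCAc-Pro-Leu-Gly-Leu-A2Pr(DNP)-Ala-Arg-NH2. Fluorescence was read for enzyme+substrate±inhibitor and substrate±inhibitor blanks.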

MMP-2 = target: T3, MMP-2 (Homo sapiens, UniProt P08253); conditions: substrate MOCAc-Pro-Leu-Gly-Leu-A2Pr(DNP)-Ala-Arg-NH2, fluorescent intensity
T3 construct: purchased Calbiochem (EMD/MERCK Biosciences)
T3 sequence (P08253 110-660): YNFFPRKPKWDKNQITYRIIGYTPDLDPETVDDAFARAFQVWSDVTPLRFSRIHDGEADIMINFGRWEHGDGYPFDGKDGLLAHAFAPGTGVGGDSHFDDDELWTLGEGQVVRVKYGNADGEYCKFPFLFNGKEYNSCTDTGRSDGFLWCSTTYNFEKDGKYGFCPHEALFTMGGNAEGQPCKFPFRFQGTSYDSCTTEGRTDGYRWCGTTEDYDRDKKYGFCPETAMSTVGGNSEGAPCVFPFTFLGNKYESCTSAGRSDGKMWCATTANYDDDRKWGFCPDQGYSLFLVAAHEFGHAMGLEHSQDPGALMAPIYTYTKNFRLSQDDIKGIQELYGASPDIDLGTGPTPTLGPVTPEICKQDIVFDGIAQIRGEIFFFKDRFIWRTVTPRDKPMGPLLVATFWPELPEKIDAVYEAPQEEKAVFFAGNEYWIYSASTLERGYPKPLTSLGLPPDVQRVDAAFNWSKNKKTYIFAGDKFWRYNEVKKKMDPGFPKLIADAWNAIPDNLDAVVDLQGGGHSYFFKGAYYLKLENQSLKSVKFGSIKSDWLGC
How it was run: as §1

Compound | IC50 (MMP-13) [nM] | IC50 (MMP-9) [nM] | IC50 (MMP-2) [nM]
COc1ccc(CNC(=O)c2cc(C#Cc3ccc(N4CCN(S(=O)(=O)N[C@@H](C(=O)O)C(C)C)CC4)cc3)cn(C)c2=O)cc1 [III-172, (R)-2-(4-{4-[5-(4-methoxybenzylcarbamoyl)-1-methyl-6-oxo-1,6-dihydropyridin-3-yllethynyl]-phenyl}-piperazine-1-sulfonylamino)-3-methylbutanoic acid] | 10 | > 10000 | > 10000
CC(C)[C@@H](NS(=O)(=O)N1CCN(c2ccc(C#Cc3ccnc(C(=O)NCc4ccccc4)c3)cc2)CC1)C(=O)O [III-177, (R)-2-{4-[4-(2-benzylcarbamoylpyridin-4-ylethynyl)-phenyl]-piperazine-1-sulfonylamino}-3-methylbutanoic acid] | 9 | > 10000 | 1000 to 10000
CC(C)[C@@H](NS(=O)(=O)N1CCN(c2ccc(C#Cc3ccnc(C(=O)NCc4ccc(F)c(Cl)c4)c3)cc2)CC1)C(=O)O [III-179, (R)-2-(4-{4-[2-(3-chloro4-fluorobenzylcarbamoyl)-pyridin-4-ylethynyl]-phenyl}-piperazine-1-sulfonylamino)-3-methylbutanoic acid] | 12 | > 10000 | > 10000
CC(C)[C@@H](NS(=O)(=O)N1CCN(c2ccc(C#Cc3ccnc(C(=O)NCc4cccc(F)c4)c3)cc2)CC1)C(=O)O [III-181, (R)-2-(4-{4-[2-(3-fluorobenzylcarbamoyl)-pyridin-4-ylethynyl]-phenyl}-piperazine-1-sulfonylamino)-3-methylbutanoic acid] | 6 | > 10000 | 1000 to 10000
Cc1cc(CNC(=O)c2cc(C#Cc3ccc(N4CCN(S(=O)(=O)N[C@@H](C(=O)O)C(C)C)CC4)cc3)ccn2)ccc1F [III-184, (R)-2-(4-{4-[2-(4-fluoro-3-methylbenzylcarbamoyl)-pyridin-4-ylethynyl]-phenyl}-piperazine-1-sulfonylamino)-3-methylbutanoic acid] | 14 | > 10000 | 1000 to 10000
Cc1cccc(CNC(=O)c2cc(C#Cc3ccc(N4CCN(S(=O)(=O)N[C@@H](C(=O)O)C(C)C)CC4)cc3)ccn2)c1 [III-186, (R)-3-methyl-2-(4-{4-[2-(3-methylbenzylcarbamoyl)-pyridin-4-ylethynyl]-phenyl}-piperazine-1-sulfonylamino)-butanoic acid] | 12 | > 10000 | 1000 to 10000
CC(C)[C@@H](NS(=O)(=O)N1CCN(c2ccc(C#Cc3ccnc(C(=O)NCc4cccs4)c3)cc2)CC1)C(=O)O [III-187, (R)-3-methyl-2-[4-(4-{2-[(thiophen-2-ylmethyl)-carbamoyl]-pyridin-4-ylethynyl}-phenyl)-piperazine-1-sulfonylamino]-butanoic acid] | 7 | > 10000 | 1000 to 10000
CC(C)[C@@H](NS(=O)(=O)N1CCN(c2ccc(C#Cc3ccnc(C(=O)NCc4ccc(F)c(F)c4)c3)cc2)CC1)C(=O)O [III-189, (R)-2-(4-{4-[2-(3.4-difluorobenzylcarbamoyl)-pyridin-4-ylethynyl]-phenyl}-piperazine-1-sulfonylamino)-3-methylbutanoic acid] | 5 | > 10000 | 1000 to 10000
CC(C)[C@@H](NS(=O)(=O)N1CCN(c2ccc(C#Cc3ccnc(C(=O)NCc4cc(F)cc(F)c4)c3)cc2)CC1)C(=O)O [III-192, (R)-2-(4-{4-[2-(3,5-difluorobenzylcarbamoyl)-pyridin-4-ylethynyl]-phenyl}-piperazine-1-sulfonylamino)-3-methylbutanoic acid] | 8 | > 10000 | 1000 to 10000
Cc1ccc(CNC(=O)c2cc(C#Cc3ccc(N4CCN(S(=O)(=O)N[C@@H](C(=O)O)C(C)C)CC4)cc3)ccn2)cc1 [III-193, (R)-3-methyl-2-(4-{4-[2-(4-methylbenzylcarbamoyl)-pyridin-4-ylethynyl]-phenyl}-piperazine-1-sulfonylamino)-butanoic acid] | 5 | > 10000 | 1000 to 10000
CC(C)[C@@H](NS(=O)(=O)N1CCN(c2ccc(C#Cc3ccnc(C(=O)NCc4ccc(C(F)(F)F)cc4)c3)cc2)CC1)C(=O)O [III-194, (R)-3-methyl-2-(4-{4-[2-(4-trifluoromethylbenzylcarbamoyl)-pyridin-4-ylethynyl]-phenyl}-piperazine-1-sulfonylamino)-butanoic acid] | 26 | > 10000 | > 10000

More lines, now with the values ahead:

IC50 (MMP-13) [nM] | IC50 (MMP-9) [nM] | IC50 (MMP-2) [nM] | Compound
7 | > 10000 | > 10000 | CC(C)c1ccc(CNC(=O)c2cc(C#Cc3ccc(N4CCN(S(=O)(=O)N[C@@H](C(=O)O)C(C)C)CC4)cc3)ccn2)cc1 [III-195, (R)-2-(4-{4-[2-(4-isopropylbenzylcarbamoyl)-pyridin-4-ylethynyl]-phenyl}-piperazine-1-sulfonylamino)-3-methylbutanoic acid]
20 | > 10000 | > 10000 | CC(C)[C@@H](NS(=O)(=O)N1CCN(c2ccc(C#Cc3ccnc(C(=O)NCc4ccc(OC(F)(F)F)cc4)c3)cc2)CC1)C(=O)O [III-196, (R)-3-methyl-2-(4-{4-[2-(4-trifluoromethoxybenzylcarbamoyl)-pyridin-4-ylethynyl]-phenyl}-piperazine-1-sulfonylamino)-butanoic acid]
4 | > 10000 | 1000 to 10000 | CC(C)[C@@H](NS(=O)(=O)N1CCN(c2ccc(C#Cc3ccnc(C(=O)NCc4ccc5c(c4)OCO5)c3)cc2)CC1)C(=O)O [III-199, (R)-2-[4-(4-{2-[(benzo[1,3]dioxol-5-ylmethyl)-carbamoyl]-pyridin-4-ylethynyl}-phenyl)-piperazine-1-sulfonylamino]-3-methylbutanoic acid]
5 | > 10000 | 1000 to 10000 | CC(C)[C@@H](NS(=O)(=O)N1CCN(c2ccc(C#Cc3ccnc(C(=O)NCc4ccc5c(c4)CCO5)c3)cc2)CC1)C(=O)O [III-200, (R)-2-[4-(4-{2-[(2,3-dihydrobenzofuran-5-ylmethyl)-carbamoyl]-pyridin-4-ylethynyl}-phenyl)-piperazine-1-sulfonylamino]-3-methylbutanoic acid]
1 | > 10000 | 100 to 1000 | CC(C)[C@@H](NS(=O)(=O)N1CCN(c2ccc(C#Cc3ccnc(C(=O)NCc4ccc(S(N)(=O)=O)cc4)c3)cc2)CC1)C(=O)O [III-201, (R)-3-methyl-2-(4-{4-[2-(4-sulfamoylbenzylcarbamoyl)-pyridin-4-ylethynyl]-phenyl}-piperazine-1-sulfonylamino)-butanoic acid]
4 | > 10000 | 1000 to 10000 | CC(C)[C@@H](NS(=O)(=O)N1CCN(c2ccc(C#Cc3ccnc(C(=O)NCc4ccc5c(c4)OCCO5)c3)cc2)CC1)C(=O)O [III-205, (R)-2-[4-(4-{2-[(2,3-dihydrbenzo[1,4]dioxin-6-ylmethyl)-carbamoyl]-pyridin-4-ylethynyl}-phenyl)-piperazine-1-sulfonylamino]-3-methylbutanoic acid]
1 | > 10000 | 100 to 1000 | CC(C)[C@@H](NS(=O)(=O)N1CCN(c2ccc(C#Cc3ccnc(C(=O)NCc4ccc(S(C)(=O)=O)cc4)c3)cc2)CC1)C(=O)O [III-206, (R)-2-(4-{4-[2-(4-methanesulfonylbenzylcarbamoyl)-pyridin-4-ylethynyl]-phenyl}-piperazine-1-sulfonylamino)-3-methylbutanoic acid]
